Laboratory results published in PubChem BioAssay AID328 (DTP/NCI, 2004).
Where “and” joins values, the source holds several entries; their conditions need not be identical. Equal entries are not always repeated. Toxic doses and inconclusive results are not listed.

Test system: BDF1 mice, P388 leukemia ip, median survival T/C
Test: NCI In Vivo Anticancer Drug Screen. Data for tumor model P388 Leukemia (intraperitoneal) in B6D2F1 (BDF1) mice
Details: endpoint: median survival time, higher = longer survival
Procedure, shortened: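 In tumour-bearing mice, survival after compound treatment is set against the vehicle group and given as a quotient.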

COC(=O)[C@@H](O)[C@](O)(CCC(C)C)C(=O)O[C@@H]1C(OC)=C[C@]23CCCN2CCc2cc4c(cc2[C@H]13)OCO4
T/C (dose: 0.25 mg/kg/injection, schedule: Q01DX009 (ip), vehicle: saline): 115 % of control
T/C (dose: 0.25 mg/kg/injection, schedule: Q03HX008 (ip), vehicle: saline): 115 % of control
T/C (dose: 0.25 mg/kg/injection, schedule: Q03HX016 (ip), vehicle: saline): 120 % of control
T/C (dose: 0.38 mg/kg/injection, schedule: Q01DX010 (ip), vehicle: saline): 118 % of control
T/C (dose: 0.41 mg/kg/injection, schedule: Q01DX009 (ip), vehicle: saline): 108 % of control
T/C (dose: 0.5 mg/kg/injection, schedule: Q01DX006 (iv), vehicle: saline): 100 % of control
T/C (dose: 0.5 mg/kg/injection, schedule: Q01DX009 (ip), vehicle: saline): 110 % of control
T/C (dose: 0.5 mg/kg/injection, schedule: Q01DX009 (oral), vehicle: saline): 110 % of control
T/C (dose: 0.5 mg/kg/injection, schedule: Q01DX009 (sc), vehicle: saline): 110 % of control
T/C (dose: 0.5 mg/kg/injection, schedule: Q03HX008 (ip), vehicle: saline): 110 % of control
T/C (dose: 0.5 mg/kg/injection, schedule: Q03HX016 (ip), vehicle: saline): 120 % of control
T/C (dose: 0.62 mg/kg/injection, schedule: Q01DX009 (ip), vehicle: saline): 108 % of control
T/C (dose: 1.0 mg/kg/injection, schedule: Q01DX006 (iv), vehicle: saline): 110 % of control
T/C (dose: 1.0 mg/kg/injection, schedule: Q01DX009 (ip), vehicle: saline): 120 % of control
T/C (dose: 1.0 mg/kg/injection, schedule: Q01DX009 (oral), vehicle: saline): 110 % of control
T/C (dose: 1.0 mg/kg/injection, schedule: Q01DX009 (sc), vehicle: saline): 110 % of control
T/C (dose: 1.0 mg/kg/injection, schedule: Q03HX008 (ip), vehicle: saline): 120 % of control
T/C (dose: 1.0 mg/kg/injection, schedule: Q03HX024 (ip), vehicle: saline): 200 % of control
T/C (dose: 1.0 mg/kg/injection, schedule: Q04DX003 (ip), vehicle: saline): 110 % of control
T/C (dose: 1.5 mg/kg/injection, schedule: Q01DX009 (ip), vehicle: saline): 118 % of control
T/C (dose: 1.87 mg/kg/injection, schedule: Q01DX009 (ip), vehicle: water): 150 % of control and 161 % of control
T/C (dose: 2.0 mg/kg/injection, schedule: Q01DX001 (ip), vehicle: saline): 100 % of control
T/C (dose: 2.0 mg/kg/injection, schedule: Q01DX001 (iv), vehicle: saline): 110 % of control
T/C (dose: 2.0 mg/kg/injection, schedule: Q01DX001 (oral), vehicle: saline): 110 % of control
T/C (dose: 2.0 mg/kg/injection, schedule: Q01DX001 (sc), vehicle: saline): 110 % of control
T/C (dose: 2.0 mg/kg/injection, schedule: Q01DX006 (iv), vehicle: saline): 120 % of control
T/C (dose: 2.0 mg/kg/injection, schedule: Q01DX009 (ip), vehicle: saline): 120 % of control
T/C (dose: 2.0 mg/kg/injection, schedule: Q01DX009 (oral), vehicle: saline): 110 % of control
T/C (dose: 2.0 mg/kg/injection, schedule: Q01DX009 (sc), vehicle: saline): 115 % of control
T/C (dose: 2.0 mg/kg/injection, schedule: Q03HX016 (ip), vehicle: saline): 177 % of control
T/C (dose: 2.0 mg/kg/injection, schedule: Q03HX024 (ip), vehicle: saline): 222 % of control
T/C (dose: 2.0 mg/kg/injection, schedule: Q04DX003 (ip), vehicle: saline): 115 % of control
T/C (dose: 2.0 mg/kg/injection, schedule: Q08DX002 (ip), vehicle: saline): 110 % of control
T/C (dose: 3.0 mg/kg/injection, schedule: Q01DX010 (ip), vehicle: saline): 181 % of control
T/C (dose: 3.75 mg/kg/injection, schedule: Q01DX009 (ip), vehicle: water): 172 % of control and 188 % of control
T/C (dose: 4.0 mg/kg/injection, schedule: Q01DX001 (ip), vehicle: saline): 110 % of control
T/C (dose: 4.0 mg/kg/injection, schedule: Q01DX001 (iv), vehicle: saline): 105 % of control
T/C (dose: 4.0 mg/kg/injection, schedule: Q01DX001 (oral), vehicle: saline): 110 % of control
T/C (dose: 4.0 mg/kg/injection, schedule: Q01DX001 (sc), vehicle: saline): 110 % of control
T/C (dose: 4.0 mg/kg/injection, schedule: Q03HX008 (ip), vehicle: saline): 166 % of control
T/C (dose: 4.0 mg/kg/injection, schedule: Q04DX003 (ip), vehicle: saline): 110 % of control
T/C (dose: 4.0 mg/kg/injection, schedule: Q08DX002 (ip), vehicle: saline): 105 % of control
T/C (dose: 6.0 mg/kg/injection, schedule: Q01DX009 (ip), vehicle: saline): 163 % of control
T/C (dose: 6.0 mg/kg/injection, schedule: Q01DX010 (ip), vehicle: saline): 182 % of control
T/C (dose: 7.5 mg/kg/injection, schedule: Q01DX009 (ip), vehicle: saline): 195 % of control
T/C (dose: 7.5 mg/kg/injection, schedule: Q01DX009 (ip), vehicle: water): 266 % of control and 272 % of control
T/C (dose: 8.0 mg/kg/injection, schedule: Q01DX001 (ip), vehicle: saline): 110 % of control
T/C (dose: 8.0 mg/kg/injection, schedule: Q01DX001 (iv), vehicle: saline): 110 % of control
T/C (dose: 8.0 mg/kg/injection, schedule: Q01DX001 (oral), vehicle: saline): 105 % of control
T/C (dose: 8.0 mg/kg/injection, schedule: Q01DX001 (sc), vehicle: saline): 100 % of control
T/C (dose: 8.0 mg/kg/injection, schedule: Q01DX006 (iv), vehicle: saline): 188 % of control
T/C (dose: 8.0 mg/kg/injection, schedule: Q01DX009 (ip), vehicle: saline): 235 % of control and 172 % of control and 222 % of control
T/C (dose: 8.0 mg/kg/injection, schedule: Q01DX009 (oral), vehicle: saline): 200 % of control
T/C (dose: 8.0 mg/kg/injection, schedule: Q01DX009 (sc), vehicle: saline): 200 % of control and 205 % of control
T/C (dose: 12.0 mg/kg/injection, schedule: Q01DX010 (ip), vehicle: saline): 208 % of control
T/C (dose: 15.0 mg/kg/injection, schedule: Q01DX009 (ip), vehicle: water): 105 % of control
T/C (dose: 16.0 mg/kg/injection, schedule: Q01DX001 (ip), vehicle: saline): 110 % of control
T/C (dose: 16.0 mg/kg/injection, schedule: Q01DX001 (iv), vehicle: saline): 120 % of control
T/C (dose: 16.0 mg/kg/injection, schedule: Q01DX001 (oral), vehicle: saline): 115 % of control
T/C (dose: 16.0 mg/kg/injection, schedule: Q01DX001 (sc), vehicle: saline): 110 % of control
T/C (dose: 16.0 mg/kg/injection, schedule: Q01DX009 (ip), vehicle: saline): 305 % of control and 209 % of control
T/C (dose: 16.0 mg/kg/injection, schedule: Q01DX009 (oral), vehicle: saline): 161 % of control
T/C (dose: 16.0 mg/kg/injection, schedule: Q01DX009 (sc), vehicle: saline): 105 % of control
T/C (dose: 16.0 mg/kg/injection, schedule: Q04DX003 (ip), vehicle: saline): 150 % of control
T/C (dose: 24.0 mg/kg/injection, schedule: Q01DX010 (ip), vehicle: saline): 252 % of control
T/C (dose: 32.0 mg/kg/injection, schedule: Q08DX002 (ip), vehicle: saline): 111 % of control
T/C (dose: 125.0 micrograms/kg/injection, schedule: Q03HX024 (ip), vehicle: saline): 100 % of control
T/C (dose: 250.0 micrograms/kg/injection, schedule: Q03HX024 (ip), vehicle: saline): 110 % of control
T/C (dose: 500.0 micrograms/kg/injection, schedule: Q03HX024 (ip), vehicle: saline): 120 % of control
